Laboratory results reported in patent publication US20090048218A1, “17Beta-CYANO-18A-HOMO-19-NOR-ANDROST-4-ENE DERIVATIVE, ITS USE AND MEDICAMENTS COMPRISING THE DERIVATIVE” (priority 2007, published 2009).
Read-outs that look alike come from different tables or passages of the source.

Assays:
[1] = target: T1, mineralcorticoid receptor (MR) (Homo sapiens, UniProt P08235); assay: MR antagonism, luciferase reporter cell line assay; format: cell-based
T1 sequence (P08235 1-984): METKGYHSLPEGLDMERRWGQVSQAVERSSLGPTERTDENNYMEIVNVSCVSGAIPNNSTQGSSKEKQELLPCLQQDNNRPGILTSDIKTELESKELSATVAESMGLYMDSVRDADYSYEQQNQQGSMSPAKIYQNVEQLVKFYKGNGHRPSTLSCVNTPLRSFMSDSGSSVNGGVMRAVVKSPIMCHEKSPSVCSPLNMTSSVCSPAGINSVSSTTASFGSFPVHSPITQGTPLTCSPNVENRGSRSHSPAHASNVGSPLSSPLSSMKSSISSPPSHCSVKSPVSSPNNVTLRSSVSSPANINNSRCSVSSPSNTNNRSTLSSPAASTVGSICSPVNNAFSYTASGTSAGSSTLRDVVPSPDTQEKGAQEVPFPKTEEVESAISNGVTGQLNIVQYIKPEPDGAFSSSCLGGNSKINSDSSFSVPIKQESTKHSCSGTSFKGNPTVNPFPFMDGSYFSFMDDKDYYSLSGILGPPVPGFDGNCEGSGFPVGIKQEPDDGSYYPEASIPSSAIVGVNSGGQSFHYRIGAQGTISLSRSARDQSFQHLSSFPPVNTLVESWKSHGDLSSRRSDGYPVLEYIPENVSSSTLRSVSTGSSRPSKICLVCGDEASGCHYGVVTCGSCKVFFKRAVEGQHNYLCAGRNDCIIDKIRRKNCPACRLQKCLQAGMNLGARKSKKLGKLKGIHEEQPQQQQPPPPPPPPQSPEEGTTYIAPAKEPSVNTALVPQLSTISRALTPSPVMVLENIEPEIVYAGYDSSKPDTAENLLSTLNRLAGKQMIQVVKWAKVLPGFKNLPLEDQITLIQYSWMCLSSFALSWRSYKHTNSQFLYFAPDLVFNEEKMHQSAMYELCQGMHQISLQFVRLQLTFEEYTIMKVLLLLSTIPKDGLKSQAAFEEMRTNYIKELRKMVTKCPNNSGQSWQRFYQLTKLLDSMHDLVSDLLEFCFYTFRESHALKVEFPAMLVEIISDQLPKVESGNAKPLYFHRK
Experimental: The derivatives according to the invention having the general chemical formula 1 have a very strong gestagenic activity. […] They should therefore have in vivo potassium-retaining, natriuretic (antimeralcorticoid) action. These properties were determined using the test described below:
For the culturing of the cells used for the assay, the culture medium used was DMEM (Dulbecco's Modified Eagle Medium: […] of glucose; PAA, #E15-009) with 10% FCS (Biochrom, S0115, batch #615B), 4 mM L-glutamine, 1% penicillin/streptomycin, 1 mg/ml of G418 and 0.5 μg/ml of puromycin.
Reporter cell lines were grown in a density of 4×10^4 cells per hollow in white, nontransparent tissue culture plates in each case having 96 hollows (PerkinElmer, #P12-106-017) and kept in 6% DCC—FCS (activated carbon-treated serum, for the removal of interfering components contained in the serum). The compounds to be investigated were added eight days later, and the cells were incubated with the compounds for 16 hours. The experiments were carried out in triplicate. At the end of the incubation, the effector-containing medium was removed and replaced by lysis buffer. After luciferase assay substrate (promega, #E1501) had been added, the plates containing the 96 hollows were then introduced into a microplate luminometer (Pherastar, BMG labtech), and the luminescence was measured. The IC50 values were evaluated using software for the calculation of dose-activity relationships.

PR = target: T2, PR (Rattus norvegicus, UniProt Q63449); assay: maintenance of pregnancy test on the rat; format: in vivo; settings: ovarectomized pregnant rats; for PR in vivo ED50 (pregnancy-maintaining dose): s.c. once daily from day 8 to day 15 or 21, with oestrone 5 μg/kg/day
T2 construct: The maintenance of pregnancy test on ovarectomized rats serves for the determination of the peripheral gestagenic activity of a compound; from tissue; host or cells: whole animal: pregnant, ovariectomized rats
T2 sequence (Q63449 1-923): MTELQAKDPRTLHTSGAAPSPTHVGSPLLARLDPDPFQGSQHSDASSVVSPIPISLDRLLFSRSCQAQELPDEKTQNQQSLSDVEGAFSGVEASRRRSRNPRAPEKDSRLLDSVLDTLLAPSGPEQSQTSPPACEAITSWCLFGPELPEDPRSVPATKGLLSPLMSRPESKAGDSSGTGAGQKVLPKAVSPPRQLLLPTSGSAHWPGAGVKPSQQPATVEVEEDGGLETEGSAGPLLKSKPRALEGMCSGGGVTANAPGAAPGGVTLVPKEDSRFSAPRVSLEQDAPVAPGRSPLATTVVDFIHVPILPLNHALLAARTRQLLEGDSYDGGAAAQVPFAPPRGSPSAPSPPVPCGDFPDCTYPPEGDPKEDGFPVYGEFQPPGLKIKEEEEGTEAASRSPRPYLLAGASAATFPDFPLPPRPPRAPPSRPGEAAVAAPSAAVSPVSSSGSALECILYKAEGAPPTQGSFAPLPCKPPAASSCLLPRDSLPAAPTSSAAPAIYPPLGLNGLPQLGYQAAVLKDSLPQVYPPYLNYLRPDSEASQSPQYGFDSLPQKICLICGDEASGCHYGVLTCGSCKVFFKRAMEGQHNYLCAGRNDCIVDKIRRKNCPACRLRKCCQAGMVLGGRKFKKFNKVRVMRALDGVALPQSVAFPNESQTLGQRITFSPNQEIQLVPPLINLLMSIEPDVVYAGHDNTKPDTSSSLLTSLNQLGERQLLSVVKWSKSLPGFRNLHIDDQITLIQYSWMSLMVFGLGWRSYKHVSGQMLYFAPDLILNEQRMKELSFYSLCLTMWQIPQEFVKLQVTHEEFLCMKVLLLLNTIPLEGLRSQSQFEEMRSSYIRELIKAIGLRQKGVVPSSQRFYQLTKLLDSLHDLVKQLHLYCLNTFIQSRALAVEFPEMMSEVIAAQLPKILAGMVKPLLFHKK
Excerpt: Carrying out the maintenance of pregnancy test on the rat:
In pregnant rats, the removal of the corpora lutea or oophorectomy induces an abortion. By means of the exogenous administration of progestins (gestagens) in combination with a suitable dose of an oestrogen, the maintenance of pregnancy is possible. The maintenance of pregnancy test on ovarectomized rats serves for the determination of the peripheral gestagenic activity of a compound.
Rats were paired overnight during proestrus. Pairing was checked on the morning of the following day by the appraisal of a vaginal smear. The presence of the sperm was evaluated here as day 1 of a commencing pregnancy. On day 8 of the pregnancy, the animals were ovarectomized under ether anaesthesia. The treatment with test compound and exogenous oestrogen (oestrone, 5 μg/kg/day) was carried out subcutaneously once daily from day 8 to day 15 or day 21 of the pregnancy. The first administration on day 8 was carried out two hours before oophorectomy. Intact control animals were given exclusively vehicle.
At the end of the experiment (day 15 or day 21), the animals were sacrificed under a CO2 atmosphere, and live foetuses (foetuses having a beating heart) and implantation sites (early resorptions and dead foetuses including autolysis and atrophic placentas) were counted in both uterine horns. On day 22, it was moreover possible to examine foetuses for malformations. In uteri without foetuses or implantation sites, the number of nidation sites was determined by staining with 10% strength ammonium sulphide solution. The maintenance of pregnancy rate was calculated as the quotient of the number of living foetuses and the total number of nidation sites (both resorbed and dead foetuses and nidation sites). For drospirenone, this value is 3.5 mg/kg/day.

[2] = reporter cell lines, 16 hours incubation, luciferase luminescence, triplicate
[3] = reporter cell lines, 16 hours incubation, luciferase luminescence, triplicate, read-out: MR antagonism IC50

Q: Which results are given for `CC[C@]12CC[C@H]3[C@@H](CCC4=CC(=O)CC[C@@H]43)[C@@H]1CC[C@@H]2C#N` [17β-Cyano-18a-homo-19-nor-androst-4-en-3-one]?
A: MR antagonism activity [% of the maximum effect] [1, 2]: 94.48 % of the maximum effect; IC50 [1, 3]: 0.0091 µM; PR in vivo ED50 (pregnancy-maintaining dose) (PR): 2.3 mg/kg/d s.c.

Q: How did the “MR antagonism activity [% of the maximum effect]” value [1, 2] turn out when `CC[C@]12CC[C@H]3[C@@H]([C@H](C)CC4=CC(=O)CC[C@@H]43)[C@@H]1CC[C@@H]2C#N` [17β-Cyano-7α-methyl-18a-homo-19-nor-androst-4-en-3-one] was run?
A: 99.07 % of the maximum effect

Q: And the IC50 [1, 3]?
A: 0.016 µM

Q: How did the “pregnancy-maintaining dose (ED50)” value (PR; subcutaneous, with oestrone 5 μg/kg/day) turn out when `C[C@]12CCC(=O)C=C1[C@@H]1C[C@@H]1[C@H]1[C@@H]3[C@@H]4C[C@@H]4[C@@]4(CCC(=O)O4)[C@@]3(C)CC[C@@H]12` [drospirenone, 6β, 7β-15β,16β-dimethylene-3-oxo-17-pregn-4-ene-21,17β-carbolactone, reference compound] was run?
A: 3.5 mg/kg/day

Q: Which results are given for `CC[C@]12CC[C@H]3[C@@H]([C@@H]4C[C@@H]4C4=CC(=O)CC[C@@H]43)[C@@H]1[C@@H]1C[C@@H]1[C@]2(C)C#N` [17β-Cyano-17α-methyl-6α,7α-methylene-15β,16β-methylene-18a-homo-19-nor-androst-4-en-3-one]?
A: MR antagonism activity [% of the maximum effect] [1, 2]: 89.49 % of the maximum effect; IC50 [1, 3]: 0.1 µM; PR in vivo ED50 (pregnancy-maintaining dose) (PR): 1.1 mg/kg/d s.c.

Q: With `CC[C@]12CC[C@H]3[C@@H]([C@H]4C[C@H]4C4=CC(=O)CC[C@@H]43)[C@@H]1[C@@H]1C[C@@H]1[C@@H]2C#N` [17β-Cyano-6β,7β-15β,16β-bismethylene-18a-homo-19-nor-androst-4-en-3-one] as the compound, how does the “MR antagonism activity [% of the maximum effect]” value [1, 2] read?
A: 97.52 % of the maximum effect

Q: What about the IC50 [1, 3] of the same compound?
A: 0.0093 µM

Q: And the “PR in vivo ED50 (pregnancy-maintaining dose)” value (shortened to “PR in vivo ED50”) (PR)?
A: 0.1 mg/kg/d s.c.

Q: `CC[C@]12CC[C@H]3[C@@H](CCC4=CC(=O)CC[C@@H]43)[C@@H]1[C@@H]1C[C@@H]1[C@@H]2C#N` (single isomer, unassigned) [17β-Cyano-15β,16β-methylene-18a-homo-19-nor-androst-4-en-3-one] was tested. Which IC50 [1] did it give?
A: 0.018 µM

Q: What about the “MR antagonism activity [% of the maximum effect]” value [1, 2] of the same compound?
A: 103.44 % of the maximum effect

Q: And the “PR in vivo ED50” value (PR)?
A: 0.01 mg/kg/d s.c.

Q: With `CC[C@]12CC[C@H]3[C@@H](CCC4=CC(=O)CC[C@@H]43)[C@@H]1[C@@H]1C[C@@H]1[C@]2(C)C#N` [17β-Cyano-17α-methyl-15β,16β-methylene-18a-homo-19-nor-androst-4-en-3-one] as the compound, how does the “MR antagonism activity [% of the maximum effect]” value [1, 2] read?
A: 64.87 % of the maximum effect

Q: What about the IC50 [1, 3] of the same compound?
A: 0.00048 µM

Q: And the “PR in vivo ED50” value (PR)?
A: 0.1 mg/kg/d s.c.
